Columns and labels:
Format in all cases: biochemical
Btk = Btk (Homo sapiens, UniProt Q06187); assay: Btk kinase activity, TR-FRET assay; conditions: read-out: Btk (IC50)
Procedure, shortened: (§1)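 Enzyme (Btk 0.5 nM; Lck 6 nM) reacted 1 h with inhibitor, ATP at Km and biotin-peptide substrate in pH 7.4 buffer, 10% DMSO. Phosphopeptide detected by Eu-p-Tyr100 antibody plus streptavidin-APC (665/615 nm). IC50 calculated from fitted Ki(app) via ATP/Km correction plus half total enzyme.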

JAK3 = target: T1, JAK3 (Homo sapiens, UniProt P52333); assay: Inhibition of a panel of kinases, in vitro HotSpot kinase assay: JAK3
T1 sequence (P52333 1-1124): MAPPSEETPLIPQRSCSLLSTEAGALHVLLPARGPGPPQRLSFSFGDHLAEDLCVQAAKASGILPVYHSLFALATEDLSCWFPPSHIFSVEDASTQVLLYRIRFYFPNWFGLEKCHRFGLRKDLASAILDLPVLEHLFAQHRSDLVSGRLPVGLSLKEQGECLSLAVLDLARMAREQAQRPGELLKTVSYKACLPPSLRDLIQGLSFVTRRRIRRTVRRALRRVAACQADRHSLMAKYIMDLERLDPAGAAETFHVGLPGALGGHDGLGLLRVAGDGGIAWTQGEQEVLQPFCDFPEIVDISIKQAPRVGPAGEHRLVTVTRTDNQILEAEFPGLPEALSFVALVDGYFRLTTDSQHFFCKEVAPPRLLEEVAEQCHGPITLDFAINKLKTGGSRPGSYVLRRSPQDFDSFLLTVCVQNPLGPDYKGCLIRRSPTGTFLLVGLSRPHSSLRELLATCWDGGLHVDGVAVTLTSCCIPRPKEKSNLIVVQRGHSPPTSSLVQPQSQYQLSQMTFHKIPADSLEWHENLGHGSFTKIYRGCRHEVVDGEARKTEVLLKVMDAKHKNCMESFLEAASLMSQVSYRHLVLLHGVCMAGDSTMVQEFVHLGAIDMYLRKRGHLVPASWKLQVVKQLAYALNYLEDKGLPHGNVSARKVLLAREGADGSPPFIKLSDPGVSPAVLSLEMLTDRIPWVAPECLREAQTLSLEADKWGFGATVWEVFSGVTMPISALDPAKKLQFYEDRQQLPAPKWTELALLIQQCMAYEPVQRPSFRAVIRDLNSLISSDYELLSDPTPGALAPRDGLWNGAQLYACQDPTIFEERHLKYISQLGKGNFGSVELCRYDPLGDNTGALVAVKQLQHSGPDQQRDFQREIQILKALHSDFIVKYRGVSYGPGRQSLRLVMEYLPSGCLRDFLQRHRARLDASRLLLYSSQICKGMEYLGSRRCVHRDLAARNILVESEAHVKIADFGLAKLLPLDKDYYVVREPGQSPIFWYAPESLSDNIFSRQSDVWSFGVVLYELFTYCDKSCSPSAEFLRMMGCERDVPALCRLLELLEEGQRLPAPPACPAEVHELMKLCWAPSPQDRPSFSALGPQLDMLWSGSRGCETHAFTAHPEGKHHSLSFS
Method: (§2) The degree of inhibition of a panel of kinases is determined using the in vitro HotSpot kinase assay (purified enzymes, ^33P-ATP, an appropriate substrate and 1 uM ATP).

Lck = Lck (Homo sapiens, UniProt P06239); assay: Lck kinase activity, TR-FRET assay; conditions: read-out: LCK (IC50)
Procedure, shortened: as §1

EGFR = EGFR (Homo sapiens, UniProt P00533); assay: Inhibition of a panel of kinases, in vitro HotSpot kinase assay: EGFR
Method: as §2

Chain of EGFR (P00533 25-1210): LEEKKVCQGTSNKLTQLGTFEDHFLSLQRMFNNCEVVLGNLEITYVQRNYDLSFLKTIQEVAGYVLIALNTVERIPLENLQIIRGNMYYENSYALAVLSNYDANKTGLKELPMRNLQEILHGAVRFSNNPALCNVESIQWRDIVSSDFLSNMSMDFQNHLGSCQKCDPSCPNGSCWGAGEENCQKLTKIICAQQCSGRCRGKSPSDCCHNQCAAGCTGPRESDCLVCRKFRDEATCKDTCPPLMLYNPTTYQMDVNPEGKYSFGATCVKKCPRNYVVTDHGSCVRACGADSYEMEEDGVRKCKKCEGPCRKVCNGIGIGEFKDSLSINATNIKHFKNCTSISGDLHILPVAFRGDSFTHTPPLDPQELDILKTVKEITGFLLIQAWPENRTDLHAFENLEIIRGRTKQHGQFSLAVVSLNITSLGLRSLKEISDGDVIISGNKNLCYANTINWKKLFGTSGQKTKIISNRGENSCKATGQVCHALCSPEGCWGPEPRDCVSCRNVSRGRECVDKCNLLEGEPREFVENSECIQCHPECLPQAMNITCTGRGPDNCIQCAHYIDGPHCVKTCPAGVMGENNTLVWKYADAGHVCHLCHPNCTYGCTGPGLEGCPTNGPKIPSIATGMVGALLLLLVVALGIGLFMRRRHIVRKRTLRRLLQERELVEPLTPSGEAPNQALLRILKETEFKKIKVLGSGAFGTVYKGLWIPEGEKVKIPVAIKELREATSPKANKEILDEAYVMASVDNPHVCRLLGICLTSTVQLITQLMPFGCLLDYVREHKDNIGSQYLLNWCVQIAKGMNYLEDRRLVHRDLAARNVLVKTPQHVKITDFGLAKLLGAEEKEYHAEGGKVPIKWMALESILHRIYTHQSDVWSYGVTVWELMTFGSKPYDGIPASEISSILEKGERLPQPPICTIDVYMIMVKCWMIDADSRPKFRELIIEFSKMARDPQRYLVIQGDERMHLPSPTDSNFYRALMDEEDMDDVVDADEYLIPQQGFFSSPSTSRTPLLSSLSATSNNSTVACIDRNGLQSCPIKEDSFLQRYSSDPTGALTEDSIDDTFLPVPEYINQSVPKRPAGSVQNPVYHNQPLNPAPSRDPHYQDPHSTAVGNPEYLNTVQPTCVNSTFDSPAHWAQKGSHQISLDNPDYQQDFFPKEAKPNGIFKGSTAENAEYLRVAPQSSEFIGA
Chain of Lck (P06239 whole entry, species assumed): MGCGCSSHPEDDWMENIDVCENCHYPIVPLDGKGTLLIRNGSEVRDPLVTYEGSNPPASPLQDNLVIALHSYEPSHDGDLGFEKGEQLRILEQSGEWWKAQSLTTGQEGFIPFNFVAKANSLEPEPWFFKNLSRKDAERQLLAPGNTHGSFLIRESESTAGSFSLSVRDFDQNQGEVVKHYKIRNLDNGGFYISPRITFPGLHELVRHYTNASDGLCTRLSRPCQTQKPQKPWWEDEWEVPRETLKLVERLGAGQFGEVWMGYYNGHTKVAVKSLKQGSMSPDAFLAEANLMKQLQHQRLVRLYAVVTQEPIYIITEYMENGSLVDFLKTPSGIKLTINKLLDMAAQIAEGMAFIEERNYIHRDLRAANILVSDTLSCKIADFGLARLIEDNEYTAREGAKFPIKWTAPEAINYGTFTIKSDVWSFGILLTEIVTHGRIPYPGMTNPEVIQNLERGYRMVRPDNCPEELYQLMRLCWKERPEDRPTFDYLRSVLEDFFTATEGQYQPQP
Chain of Btk (Q06187 whole entry): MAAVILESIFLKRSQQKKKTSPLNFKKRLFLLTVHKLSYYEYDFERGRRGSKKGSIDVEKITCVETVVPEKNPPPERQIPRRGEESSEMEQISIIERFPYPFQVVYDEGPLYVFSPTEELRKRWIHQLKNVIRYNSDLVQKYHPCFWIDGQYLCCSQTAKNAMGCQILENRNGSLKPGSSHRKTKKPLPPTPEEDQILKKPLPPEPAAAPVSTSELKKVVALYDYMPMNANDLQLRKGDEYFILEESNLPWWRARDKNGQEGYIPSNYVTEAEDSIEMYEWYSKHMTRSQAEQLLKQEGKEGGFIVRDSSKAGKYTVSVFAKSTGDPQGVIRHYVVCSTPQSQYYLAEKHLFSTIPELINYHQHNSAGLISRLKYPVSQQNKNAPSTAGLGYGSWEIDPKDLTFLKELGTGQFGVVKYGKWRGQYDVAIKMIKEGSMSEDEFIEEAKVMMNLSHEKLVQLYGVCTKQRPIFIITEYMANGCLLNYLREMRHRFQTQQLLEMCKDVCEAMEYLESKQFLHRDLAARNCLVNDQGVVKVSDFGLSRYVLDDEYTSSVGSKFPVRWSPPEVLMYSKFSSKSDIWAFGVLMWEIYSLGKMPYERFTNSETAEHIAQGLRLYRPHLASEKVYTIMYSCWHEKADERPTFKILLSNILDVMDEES

Row | Compound | IC50 (Btk) [nM] | IC50 (JAK3) [nM] | IC50 (Lck) [nM] | IC50 (EGFR) [nM]
1 | Cc1ccnc(NC(=O)c2ccc(Oc3ccnc4[nH]nc(N[C@@H]5CCCN(C#N)C5)c34)cc2)c1 [compound 276, (R)-4-(3-(1-cyanopiperidin-3-ylamino)-1H-pyrazolo[3,4-b]pyridin-4-yloxy)-N-(4-methylpyridin-2-yl)benzamide] | < 100 | > 10000 | 100 to 1000 | 1000 to 10000
2 | CCOP(=O)(CCCC(=O)N1CCC[C@@H](Nc2n[nH]c3nccc(Oc4ccc(C(=O)Nc5cc(C)ccn5)cc4)c23)C1)OCC [compound 271, (R)-diethyl 4-(3-(4-(4-(4-methylpyridin-2-ylcarbamoyl)phenoxy)-1H-pyrazolo[3,4-b]pyridin-3-ylamino)piperidin-1-yl)-4-oxobutylphosphonate] | < 100 | > 10000 | 100 to 1000 | > 10000
3 | C=CC(=O)N1CCC[C@@H](Nc2n[nH]c3nccc(Oc4ccc(NC(=O)Nc5cc(C(F)(F)F)ccn5)cc4)c23)C1 [compound 201, 1-{4-[(3-{[(3R)-1-(prop-2-enoyl)piperidin-3-yl]amino}-1H-pyrazolo[3,4-b]pyridin-4-yl)oxy]phenyl}-3-[4-(trifluoromethyl)pyridin-2-yl]urea] | < 100 | < 100 | < 100 | < 100
4 | Cc1ccnc(NC(=O)c2ccc(Oc3ccnc4[nH]nc(N[C@@H]5CCCN(C(=O)C6(C)CCN(C(=O)OC(C)(C)C)CC6)C5)c34)cc2)c1 [compound 103, tert-butyl 4-methyl-4-[(3R)-3-[(4-{4-[(4-methylpyridin-2-yl)carbamoyl]phenoxy}-1H-pyrazolo[3,4-b]pyridin-3-yl)amino]piperidine-1-carbonyl]piperidine-1-carboxylate] | < 100 | > 10000 | 1000 to 10000 | > 10000
5 | CC#CC(=O)N1CCC[C@@H](Nc2n[nH]c3nccc(Oc4ccc(C(=O)Nc5nc6ccccc6s5)cc4)c23)C1 [compound 183] | < 100 | 100 to 1000 | 100 to 1000 | > 10000
6 | C=CC(=O)N1CCC[C@@H](Nc2n[nH]c3nccc(Oc4ccc(C(=O)Nc5ncc(CC)s5)cc4)c23)C1 [compound 179] | < 100 | < 100 | 100 to 1000 | < 100
7 | O=C(Nc1cc(C(F)(F)F)ccn1)c1ccc(Oc2ccnc3[nH]nc(N[C@@H]4CCN(C(=O)C5CC5)C4)c23)cc1 [compound 215, 4-[(3-{[(3R)-1-cyclopropanecarbonylpyrrolidin-3-yl]amino}-1H-pyrazolo[3,4-b]pyridin-4-yl)oxy]-N-[4-(trifluoromethyl)pyridin-2-yl]benzamide] | < 100 | > 10000 | 1000 to 10000 | > 10000
8 | Cc1cnc(NC(=O)c2ccc(Oc3ccnc4[nH]nc(N[C@@H]5CCN(C(=O)C6CC6)C5)c34)cc2)s1 [compound 200, 4-[(3-{[(3R)-1-cyclopropanecarbonylpyrrolidin-3-yl]amino}-1H-pyrazolo[3,4-b]pyridin-4-yl)oxy]-N-(5-methyl-1,3-thiazol-2-yl)benzamide] | < 100 | > 10000 | 1000 to 10000 | 1000 to 10000

Second part, the compound after the results:

Row | IC50 (Btk) [nM] | IC50 (JAK3) [nM] | IC50 (Lck) [nM] | IC50 (EGFR) [nM] | Compound
9 | 100 to 1000 | > 10000 | 1000 to 10000 | 1000 to 10000 | Cc1cnc(NC(=O)c2ccc(Oc3ccnc4[nH]nc(C5CCCN(C(=O)C6CCN(C)CC6)C5)c34)cc2)s1 (centres unmarked) [compound 217, N-(5-methyl-1,3-thiazol-2-yl)-4-({3-[1-(1-methylpiperidine-4-carbonyl)piperidin-3-yl]-1H-pyrazolo[3,4-b]pyridin-4-yl}oxy)benzamide]
10 | < 100 | > 10000 | 1000 to 10000 | > 10000 | CC1(C(=O)N2CCC[C@@H](Nc3n[nH]c4nccc(Oc5ccc(C(=O)Nc6ccccn6)cc5)c34)C2)COC1 [compound 111, 4-[(3-{[(3R)-1-(3-methyloxetane-3-carbonyl)piperidin-3-yl]amino}-1H-pyrazolo[3,4-b]pyridin-4-yl)oxy]-N-(pyridin-2-yl)benzamide]
11 | < 100 | > 10000 | 100 to 1000 | 1000 to 10000 | Cc1cnc(NC(=O)c2ccc(Oc3ccnc4[nH]nc(N[C@@H]5CCN(C(=O)C6CCN(C)CC6)C5)c34)cc2)s1 [compound 221, N-(5-methyl-1,3-thiazol-2-yl)-4-[(3-{[(3R)-1-(1-methylpiperidine-4-carbonyl)pyrrolidin-3-yl]amino}-1H-pyrazolo[3,4-b]pyridin-4-yl)oxy]benzamide]
12 | < 100 | < 100 | 100 to 1000 | < 100 | C=CC(=O)N1CCC[C@@H](Nc2n[nH]c3nccc(Oc4ccc(C(=O)Nc5nc6ccccc6s5)cc4)c23)C1 [compound 162]
13 | 100 to 1000 | > 10000 | 1000 to 10000 | 1000 to 10000 | CC(=O)N1CCC[C@@H](Oc2n[nH]c3nccc(Nc4cccc(C(=O)Nc5ccc(C(C)C)c(C)c5)c4)c23)C1 [compound 135, 3-[(3-{[(3R)-1-acetylpiperidin-3-yl]oxy}-1H-pyrazolo[3,4-b]pyridin-4-yl)amino]-N-[3-methyl-4-(propan-2-yl)phenyl]benzamide]
14 | < 100 | > 10000 | 100 to 1000 | > 10000 | COCCCC(=O)N1CCC[C@@H](Nc2n[nH]c3nccc(Oc4ccc(C(=O)Nc5cc(C)ccn5)cc4)c23)C1 [compound 274, (R)-4-(3-(1-(4-methoxybutanoyl)piperidin-3-ylamino)-1H-pyrazolo[3,4-b]pyridin-4-yloxy)-N-(4-methylpyridin-2-yl)benzamide]
